From patent publication US10421715B2, “Pleuromutilin derivative having 2-amino phenyl mercaptan side chain as well as preparation method and application thereof” (SOUTH CHINA AGRICULTURAL UNIVERSITY, priority 2016, dated 2019)
Values after ≈ are worked out from the molar mass of the structure shown. Like-named read-outs stand apart in the source and are kept apart here.

What was measured:
Assay in all cases: In-vitro bacteriostatic experiment, two-fold agar dilution MIC
Format in all cases: cell-based
[1] = system: methicillin-resistant staphylococcus ATCC43300; conditions: for MIC: read-out: MIC MRSA ATCC43300
Procedure: (§1) Minimum inhibitory concentrations (MIC) of a series of compounds obtained in the disclosure were measured by using a two-fold agar dilution method. An experimental control drug selected valnemulin, and valnemulin belongs to pleuromutilin antibiotics and is the most widely applied veterinary antibiotic in the pleuromutilin antibiotics at present. By using a multi-point inoculator, bacteria solution was inoculated into a culture dish containing drugs having different concentrations at a bacteria inoculating amount of 10^6 CFU/ml. A result was observed after incubation for 24 hours at 37° C., and the concentration of a compound in a culture dish without bacteria served as the minimum inhibitory concentration (MIC) of this compound.
(§2) Strains used in the experiment were E. Coli ATCC25922, Staphylococcus aureus ATCC29213, methicillin-resistant staphylococcus ATCC43300 and mycoplasma gallisepticum S6.
(§3) 25.6 mg of synthesized target compound was precisely weighed to be placed in 10 mL of volumetric flask and dissolved with a small amount of N,N-dimethylformamide and then a volume was metered with N,N-dimethylformamide to 10 mL, so as to prepare 2560 μg/mL stock solution. In addition, 25.6 mg of pleuromutilin, tiamulin, valnemulin and retapamulin were respectively and precisely weighed to be placed in 10 ml of volumetric flask, and a volume was metered with N,N-dimethylformamide to 10 mL, so as to prepare 2560 μg/mL control stock solution.
(§4) The control stock solution was diluted in a culture dish with a doubling dilution method, each culture dish contained 1 ml of medicine liquid, the medicine liquid is diluted to 20 ml with molten MH agar, so that final concentrations of subject compounds in a series of culture dishes were respectively 64, 32, 16, 8, 4, 2, 1, 0.5, 0.25, 0.125 and 0.0625 μg/ml.

E. Coli ATCC25922 = conditions: for MIC: Escherichia coli, read-out: MIC E. coli ATCC25922
Procedure: as §1, §2, §3, §4

[2] = system: Staphylococcus aureus ATCC29213; conditions: for MIC: Staphylococcus aureus, read-out: MIC S. aureus ATCC29213
Procedure: as §1, §2, §3, §4

[3] = system: mycoplasma gallisepticum S6; conditions: for MIC: Mycoplasmoides gallisepticum, read-out: MIC S6
Procedure: as §1, §2, §3, §4

[4] = agar dilution, 10^6 CFU/ml, 24 hours at 37° C.
[5] = mycoplasma gallisepticum S6, agar dilution, 10^6 CFU/ml, 24 hours at 37° C.
[6] = ATCC25922, agar dilution, 10^6 CFU/ml, 24 hours at 37° C.
[7] = ATCC29213, agar dilution, 10^6 CFU/ml, 24 hours at 37° C.

Row | Structure (SMILES) | MIC MRSA ATCC43300 [1, 4] | MIC E. coli ATCC25922 (E. Coli ATCC25922; [4]) | MIC S. aureus ATCC29213 [2, 4] | MIC S6 [3, 5] | further results
1 | C=CC1(C)CC(OC(=O)CSc2ccccc2NC(=O)c2cccc(F)c2)C2(C)C(C)CCC3(CCC(=O)C32)C(C)C1O (centres unmarked) [Compound 5, 22-O-[2-(3-fluorobenzamido)phenyl] thioacetyl valnemulin] | 0.125 µg/mL (≈ 0.206 µM) | >64 µg/mL | 0.125 µg/mL (≈ 0.206 µM) | 0.125 µg/mL (≈ 0.206 µM) | –
2 | C=CC1(C)CC(OC(=O)CSc2ccccc2NC(=O)c2cccc(Cl)c2)C2(C)C(C)CCC3(CCC(=O)C32)C(C)C1O (centres unmarked) [Compound 8, 22-O-[2-(3-chlorobenzamido)phenyl] thioacetyl valnemulin] | 0.25 µg/mL (≈ 0.4 µM) | >64 µg/mL | 0.25 µg/mL (≈ 0.4 µM) | 0.125 µg/mL (≈ 0.2 µM) | –
3 | C=CC1(C)CC(OC(=O)CSc2ccccc2NC(=O)c2cccc(C)c2)C2(C)C(C)CCC3(CCC(=O)C32)C(C)C1O (centres unmarked) [Compound 2, 22-O-[2-(3-methylbenzamnido)phenyl] thioacetyl valnemulin] | 0.5 µg/mL (≈ 0.828 µM) | >64 µg/mL | 1 µg/mL (≈ 1.66 µM) | 0.25 µg/mL (≈ 0.414 µM) | –
4 | C=C[C@]1(C)C[C@@H](OC(=O)CSc2ccccc2NC(=O)c2ccc(OC)cc2)[C@]2(C)[C@H](C)CC[C@]3(CCC(=O)[C@H]32)[C@@H](C)[C@@H]1O [Compound 12] | 1 µg/mL (≈ 1.61 µM) | >64 µg/mL | 1 µg/mL (≈ 1.61 µM) | 0.5 µg/mL (≈ 0.807 µM) | –
5 | C=C[C@]1(C)C[C@@H](OC(=O)CSc2ccccc2N)[C@]2(C)[C@H](C)CC[C@]3(CCC(=O)[C@H]32)[C@@H](C)[C@@H]1O [Compound 13] | – | – | – | – | MIC [1, 4]: 0.0156 µg/mL (≈ 0.0321 µM); antibacterial activity on methicillin-resistant staphylococcus (in words) ([1]; comparison with control drugs): obviously superior to that of valnemulin and retapamulin; MIC (E. Coli ATCC25922; [6]): > 64 µg/mL; MIC [2, 7]: 0.0156 µg/mL (≈ 0.0321 µM); antibacterial activity on staphylococcus (in words) ([2]; comparison with control drugs): obviously superior to that of valnemulin and retapamulin; MIC [3, 5]: 0.0156 µg/mL (≈ 0.0321 µM)
6 | C=CC1(C)CC(OC(=O)CSc2ccccc2NC(=O)c2ccc(C)cc2)C2(C)C(C)CCC3(CCC(=O)C32)C(C)C1O (centres unmarked) [Compound 3, 22-O-[2-(4-methylbenzamido)phenyl] thioacetyl valnemulin] | 0.5 µg/mL (≈ 0.828 µM) | >64 µg/mL | 0.5 µg/mL (≈ 0.828 µM) | 0.25 µg/mL (≈ 0.414 µM) | –
7 | C=CC1(C)CC(OC(=O)CSc2ccccc2NC(=O)c2ccccc2OC)C2(C)C(C)CCC3(CCC(=O)C32)C(C)C1O (centres unmarked) [Compound 10, 22-O-[2-(2-methoxybenzamido)phenyl] thioacetyl valnemulin] | 0.5 µg/mL (≈ 0.807 µM) | >64 µg/mL | 1 µg/mL (≈ 1.61 µM) | 0.25 µg/mL (≈ 0.403 µM) | –
8 | C=C[C@]1(C)C[C@@H](OC(=O)CSC(C)(C)CNC(=O)[C@H](N)C(C)C)[C@]2(C)[C@H](C)CC[C@]3(CCC(=O)[C@H]32)[C@@H](C)[C@@H]1O [Valnemulin, reference compound] | – | – | – | – | MIC ([1]; 24 h): 0.0625 µg/mL (≈ 0.111 µM); MIC (E. Coli ATCC25922; ATCC25922, 24 h): 32 µg/mL (≈ 56.7 µM); MIC ([2]; ATCC29213, 24 h): 0.0625 µg/mL (≈ 0.111 µM); MIC ([3]; S6, 24 h): 0.0039 µg/mL (≈ 0.0069 µM)
9 | C=C[C@]1(C)C[C@@H](OC(=O)CSCCN(CC)CC)[C@]2(C)[C@H](C)CC[C@]3(CCC(=O)[C@H]32)[C@@H](C)[C@@H]1O [Tiamulin, reference compound] | – | – | – | – | MIC [1, 4]: 0.5 µg/mL (≈ 1.01 µM); MIC (E. Coli ATCC25922; [6]): > 64 µg/mL; MIC [2, 7]: 0.5 µg/mL (≈ 1.01 µM); MIC [3, 5]: 0.0156 µg/mL (≈ 0.0316 µM)
10 | C=CC1(C)CC(OC(=O)CSc2ccccc2NC(=O)c2ccc(F)cc2)C2(C)C(C)CCC3(CCC(=O)C32)C(C)C1O (centres unmarked) [Compound 6, 22-O-[2-(4-fluorobenzamido)phenyl] thioacetyl valnemulin] | 1 µg/mL (≈ 1.65 µM) | >64 µg/mL | 1 µg/mL (≈ 1.65 µM) | 0.5 µg/mL (≈ 0.823 µM) | –
11 | C=C[C@]1(C)C[C@@H](OC(=O)CO)[C@]2(C)[C@H](C)CC[C@]3(CCC(=O)[C@H]32)[C@@H](C)[C@@H]1O [Pleuromutilin] | – | – | – | – | MIC [1, 4]: 0.5 µg/mL (≈ 1.32 µM); MIC (E. Coli ATCC25922; [6]): > 64 µg/mL; MIC [2, 7]: 1 µg/mL (≈ 2.64 µM); MIC [3, 5]: 0.0625 µg/mL (≈ 0.165 µM)
12 | C=C[C@]1(C)C[C@@H](OC(=O)CSc2ccccc2NC(=O)c2ccccc2Cl)[C@]2(C)[C@H](C)CC[C@]3(CCC(=O)[C@H]32)[C@@H](C)[C@@H]1O [Compound 7] | 0.5 µg/mL (≈ 0.801 µM) | >64 µg/mL | 0.5 µg/mL (≈ 0.801 µM) | 0.25 µg/mL (≈ 0.4 µM) | –
13 | C=C[C@]1(C)C[C@@H](OC(=O)CS[C@@H]2C[C@H]3CC[C@@H](C2)N3C)[C@]2(C)[C@H](C)CC[C@]3(CCC(=O)[C@H]32)[C@@H](C)[C@@H]1O [Retapamulin, reference compound] | – | – | – | – | MIC ([1]; 24 h): 0.0625 µg/mL (≈ 0.121 µM); MIC ([2]; ATCC29213, 24 h): 0.0625 µg/mL (≈ 0.121 µM)
14 | C=C[C@]1(C)C[C@@H](OC(=O)CSc2ccccc2NC(=O)c2ccc(Cl)cc2)[C@]2(C)[C@H](C)CC[C@]3(CCC(=O)[C@H]32)[C@@H](C)[C@@H]1O [Compound 9] | 0.5 µg/mL (≈ 0.801 µM) | >64 µg/mL | 0.5 µg/mL (≈ 0.801 µM) | 0.25 µg/mL (≈ 0.4 µM) | –
15 | C=CC1(C)CC(OC(=O)CSc2ccccc2NC(=O)c2ccccc2F)C2(C)C(C)CCC3(CCC(=O)C32)C(C)C1O (centres unmarked) [Compound 4] | 0.5 µg/mL (≈ 0.823 µM) | >64 µg/mL | 0.5 µg/mL (≈ 0.823 µM) | 0.25 µg/mL (≈ 0.411 µM) | –
16 | C=CC1(C)CC(OC(=O)CSc2ccccc2NC(=O)c2cccc(OC)c2)C2(C)C(C)CCC3(CCC(=O)C32)C(C)C1O (centres unmarked) [Compound 11, 22-O-[2-(3-methoxybenzamido)phenyl] thioacetyl valnemulin] | 1 µg/mL (≈ 1.61 µM) | >64 µg/mL | 1 µg/mL (≈ 1.61 µM) | 0.25 µg/mL (≈ 0.403 µM) | –
17 | C=C[C@]1(C)C[C@@H](OC(=O)CSc2ccccc2NC(=O)c2ccccc2C)[C@]2(C)[C@H](C)CC[C@]3(CCC(=O)[C@H]32)[C@@H](C)[C@@H]1O [Compound 1] | 0.25 µg/mL (≈ 0.414 µM) | >64 µg/mL | 0.25 µg/mL (≈ 0.414 µM) | 0.125 µg/mL (≈ 0.207 µM) | –
